# Data taken from publication PMC5128878 (Scientific Reports, 2016).
# pIC50: −log10 of the molar value. Read-outs that look alike come from different tables or passages of the source.
# What was measured:
# α4β2 nAChR = target: T1, α4β2 nAChR (Rattus norvegicus, UniProt P09483+P12390); assay: cell-based; type: cell-based; settings: for pIC50: IC50 (95% CI), ACh 10 μM
# T1 construct: expressed in transfected cells; host or cells: Xenopus laevis oocytes injected with cRNA
# Protocol: (§1) cDNA clones of rat neuronal nAChR subunits (α3, α4, β2 and β4) and mouse muscle subunits (α1, β1, γ and δ) were from the Salk Institute for Biological Studies (Professor Stephen Heinemann). The human α7 and RIC-3 cDNAs were provided by Professor David Sattelle (University College London).
# (§2) Oocytes isolated from mature female Xenopus laevis were supplied by the European Xenopus Resource Centre, University of Portsmouth, UK. Oocytes were treated with collagenase (0.5 mg/ml, Sigma type 1 A) in Ca^2+-free solution (96 mM NaCl, 2 mM KCl, 1 mM MgCl2, 5 mM HEPES, 2.5 mM Na-pyruvate, 100 U/mL penicillin, 0.1 mg/mL streptomycin, pH 7.5) with shaking at 19 °C to defolliculate and remove the connective tissue surrounding the cells. After separation, oocytes were washed 7 times with modified Barth’s solution (96 mM NaCl, 2 mM KCl, 1.8 mM CaCl2, 1 mM MgCl2, 5 mM HEPES, 2.5 mM Na-pyruvate, 0.5 mM theophylline, 50 μg/mL gentamicin, pH 7.5) and kept at 19 °C in the same solution.
# (§3) Healthy oocytes were injected with cRNA using a Nano-liter Injector (World Precision Instruments Inc, USA). Mixtures of nAChR subunit cRNAs were injected as follows; for heteromeric rat neuronal receptors a 1:1 ratio of α:β at 200 ng/μL; for mouse embryonic muscle a 1:1:1:1 ratio of α:β:γ:δ at 25 ng/μL; human α7 at 100 ng/μL was mixed with RIC-3 at 30 ng/μL. Each oocyte was injected with 50 nL of RNA solution. Injected oocytes were saved in Barth’s solution at 19 °C for two to three days for expression of the target protein. During this time oocytes were regularly checked to remove unhealthy ones.
# (§4) Electrophysiological recordings were taken from nAChR-expressing oocytes by two-electrode voltage clamp using a Geneclamp 500 voltage clamp amplifier (Axon instruments, USA). An oocyte was placed in the perfusion chamber using a plastic Pasteur pipette and the bath was perfused (~5 mL/min) with fresh Frog Ringer solution (96 mM NaCl, 2 mM KCl, 1.8 mM CaCl2 and 5 mM HEPES, pH 7.5). Microelectrodes were pulled from borosilicate glass capillaries (Harvard GC150TF-10) using a programmable micropipette puller (Sutter P97, USA), and they had resistances between 0.5 and 2.5 MΩ when filled with 3 M KCl. The oocyte was voltage-clamped at holding potentials (VH) between −60 and −100 mV. […] Currents were recorded to a PC via a digidata 1200 analog-to-digital converter (Axon Instuments, USA) using WinEDR v3.2.6 Software (Dr John Dempster, University of Strathclyde, UK).
# (§5) Graphpad Prism 6 was used for data analysis, graph plotting and curve fitting. All plotted points are the mean ± SEM obtained from 4–20 oocytes.
# α4β2(V253F) nAChR = target: T2, α4β2(V253F) nAChR (Rattus norvegicus, UniProt P09483+P12390, V277F); assay: Two-electrode voltage clamp of ACh currents, α4β2(V253F) nAChRs expressed in Xenopus oocytes; type: cell-based; settings: for pIC50: α4β2(V253F), ACh 10 μM
# T2 construct: expressed in transfected cells; host or cells: Xenopus laevis oocytes injected with cRNA
# T2 sequence (P09483 31-630, stated change not applied): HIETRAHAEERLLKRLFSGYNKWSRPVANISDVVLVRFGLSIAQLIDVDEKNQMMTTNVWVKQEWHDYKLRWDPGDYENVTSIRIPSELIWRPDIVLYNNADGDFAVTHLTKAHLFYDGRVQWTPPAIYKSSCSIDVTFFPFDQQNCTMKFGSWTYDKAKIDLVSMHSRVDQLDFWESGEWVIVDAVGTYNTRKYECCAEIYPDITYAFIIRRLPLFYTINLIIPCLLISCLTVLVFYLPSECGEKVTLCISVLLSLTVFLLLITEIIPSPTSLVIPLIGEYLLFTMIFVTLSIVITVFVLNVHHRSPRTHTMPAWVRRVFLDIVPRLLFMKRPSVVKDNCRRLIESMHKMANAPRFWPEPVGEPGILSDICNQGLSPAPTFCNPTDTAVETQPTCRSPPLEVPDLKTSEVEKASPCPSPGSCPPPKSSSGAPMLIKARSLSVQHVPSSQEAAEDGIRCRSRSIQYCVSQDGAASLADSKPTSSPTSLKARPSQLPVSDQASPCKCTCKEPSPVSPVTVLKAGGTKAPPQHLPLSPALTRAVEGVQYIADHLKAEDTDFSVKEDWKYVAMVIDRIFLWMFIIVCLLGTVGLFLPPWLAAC
# T2 sequence (P12390 25-500 V277F): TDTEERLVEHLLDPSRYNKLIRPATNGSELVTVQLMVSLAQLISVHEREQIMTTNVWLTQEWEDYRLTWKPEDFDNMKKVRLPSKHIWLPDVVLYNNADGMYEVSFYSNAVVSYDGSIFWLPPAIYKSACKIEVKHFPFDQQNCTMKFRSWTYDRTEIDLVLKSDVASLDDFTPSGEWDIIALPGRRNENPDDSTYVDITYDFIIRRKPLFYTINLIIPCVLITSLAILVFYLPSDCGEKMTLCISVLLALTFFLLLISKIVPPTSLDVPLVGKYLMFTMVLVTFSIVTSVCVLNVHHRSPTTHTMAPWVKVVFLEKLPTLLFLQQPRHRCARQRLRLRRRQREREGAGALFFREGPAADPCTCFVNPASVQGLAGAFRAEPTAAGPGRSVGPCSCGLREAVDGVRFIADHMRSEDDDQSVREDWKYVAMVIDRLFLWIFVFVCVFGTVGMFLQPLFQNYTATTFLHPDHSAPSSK
# Protocol: as §1, §2, §3, §4, §5
# α4β4 nAChR = target: T3, α4β4 nAChR (Rattus norvegicus, UniProt P09483+P12392); assay: cell-based; type: cell-based; settings: for pIC50: IC50 (95% CI), ACh 10 μM
# T3 construct: expressed in transfected cells; host or cells: Xenopus laevis oocytes injected with cRNA
# T3 sequence (P09483 31-630): as the sequence (P09483 31-630, stated change not applied) above
# T3 sequence (P12392 21-495): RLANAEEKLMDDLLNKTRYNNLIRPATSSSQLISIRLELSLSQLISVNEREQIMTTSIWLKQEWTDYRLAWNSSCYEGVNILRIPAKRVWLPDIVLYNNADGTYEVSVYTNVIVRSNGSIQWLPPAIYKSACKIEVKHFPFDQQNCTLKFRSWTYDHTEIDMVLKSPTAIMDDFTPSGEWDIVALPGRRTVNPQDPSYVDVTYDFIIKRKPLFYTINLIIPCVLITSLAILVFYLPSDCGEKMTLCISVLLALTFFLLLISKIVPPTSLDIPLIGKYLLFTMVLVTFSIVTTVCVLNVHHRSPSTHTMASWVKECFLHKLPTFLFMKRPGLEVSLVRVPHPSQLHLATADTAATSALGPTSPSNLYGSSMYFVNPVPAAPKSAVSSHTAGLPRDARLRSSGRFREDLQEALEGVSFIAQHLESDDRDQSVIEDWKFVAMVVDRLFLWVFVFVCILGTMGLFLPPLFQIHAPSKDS
# Protocol: as §2, §3, §4, §5
# α3β4 nAChR = target: T4, α3β4 nAChR (Rattus norvegicus, UniProt P04757+P12392); assay: cell-based
# T4 construct: expressed in transfected cells; host or cells: Xenopus laevis oocytes injected with cRNA
# T4 sequence (P04757 26-499): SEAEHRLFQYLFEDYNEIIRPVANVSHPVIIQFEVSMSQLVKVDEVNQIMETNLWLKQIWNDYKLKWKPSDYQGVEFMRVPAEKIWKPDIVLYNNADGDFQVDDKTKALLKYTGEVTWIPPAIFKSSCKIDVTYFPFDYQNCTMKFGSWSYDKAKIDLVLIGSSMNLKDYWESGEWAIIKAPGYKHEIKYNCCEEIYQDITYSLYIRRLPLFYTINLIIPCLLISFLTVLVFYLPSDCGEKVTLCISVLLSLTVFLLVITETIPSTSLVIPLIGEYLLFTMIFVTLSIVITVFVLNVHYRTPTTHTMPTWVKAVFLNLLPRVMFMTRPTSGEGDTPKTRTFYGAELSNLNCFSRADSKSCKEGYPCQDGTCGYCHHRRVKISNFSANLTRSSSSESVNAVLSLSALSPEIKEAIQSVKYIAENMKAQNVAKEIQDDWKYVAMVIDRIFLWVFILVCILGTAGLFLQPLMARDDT
# T4 sequence (P12392 21-495): as the sequence (P12392 21-495) above
# Protocol: as §2, §3, §4, §5
# α3β4(F255V) nAChR = target: T5, α3β4(F255V) nAChR (Rattus norvegicus, UniProt P04757+P12392, F275V); assay: Two-electrode voltage clamp of ACh currents, α3β4(F255V) nAChRs expressed in Xenopus oocytes; type: cell-based; settings: for pIC50: α3β4(F255V), ACh 100 μM
# T5 construct: expressed in transfected cells; host or cells: Xenopus laevis oocytes injected with cRNA
# T5 sequence (P04757 26-499): as the sequence (P04757 26-499) above
# T5 sequence (P12392 21-495 F275V): as the sequence (P12392 21-495) above, with F255V counted along it
# Protocol: as §1, §2, §3, §4, §5
# α7 nAChR = target: T6, α7 nAChR (Homo sapiens, UniProt P36544); assay: Two-electrode voltage clamp of ACh currents, α7 nAChRs (with RIC-3) expressed in Xenopus oocytes; type: cell-based; settings: for pIC50: IC50 (95% CI), ACh 100 μM
# T6 construct: expressed in transfected cells; host or cells: Xenopus laevis oocytes injected with cRNA
# T6 sequence (P36544 23-502): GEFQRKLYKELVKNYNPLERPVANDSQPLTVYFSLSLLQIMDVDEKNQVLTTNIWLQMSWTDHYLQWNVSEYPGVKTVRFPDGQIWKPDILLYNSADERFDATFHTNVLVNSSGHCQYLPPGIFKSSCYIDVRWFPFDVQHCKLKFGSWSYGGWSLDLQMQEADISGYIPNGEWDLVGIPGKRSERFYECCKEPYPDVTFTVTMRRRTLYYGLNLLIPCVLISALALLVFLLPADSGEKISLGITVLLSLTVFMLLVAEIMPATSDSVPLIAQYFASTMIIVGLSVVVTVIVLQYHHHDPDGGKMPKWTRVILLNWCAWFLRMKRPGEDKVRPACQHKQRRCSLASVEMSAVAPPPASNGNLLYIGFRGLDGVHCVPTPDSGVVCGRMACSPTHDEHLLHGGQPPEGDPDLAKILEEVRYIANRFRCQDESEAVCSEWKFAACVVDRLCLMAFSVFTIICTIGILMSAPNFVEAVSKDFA
# Protocol: as §2, §3, §4, §5
# α1β1γδ nAChR = target: T7, α1β1γδ nAChR (Mus musculus, UniProt P02716+P04756+P04760+P09690); assay: cell-based; type: cell-based; settings: α1β1γδ; for pIC50: IC50 (95% CI), ACh 10 μM
# T7 construct: expressed in transfected cells; host or cells: Xenopus laevis oocytes injected with cRNA
# T7 sequence (P04756 21-457): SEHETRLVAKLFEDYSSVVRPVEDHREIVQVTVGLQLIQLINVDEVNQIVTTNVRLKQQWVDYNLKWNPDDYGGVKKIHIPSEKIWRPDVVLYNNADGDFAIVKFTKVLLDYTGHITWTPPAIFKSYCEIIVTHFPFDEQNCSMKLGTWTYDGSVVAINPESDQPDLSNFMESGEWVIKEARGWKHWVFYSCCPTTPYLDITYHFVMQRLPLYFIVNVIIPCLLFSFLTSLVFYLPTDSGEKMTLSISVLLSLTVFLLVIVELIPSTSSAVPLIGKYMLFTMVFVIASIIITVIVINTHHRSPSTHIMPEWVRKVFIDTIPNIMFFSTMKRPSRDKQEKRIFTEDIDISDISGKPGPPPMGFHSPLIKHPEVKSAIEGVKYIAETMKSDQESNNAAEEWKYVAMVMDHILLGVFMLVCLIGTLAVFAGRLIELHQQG
# T7 sequence (P09690 24-501): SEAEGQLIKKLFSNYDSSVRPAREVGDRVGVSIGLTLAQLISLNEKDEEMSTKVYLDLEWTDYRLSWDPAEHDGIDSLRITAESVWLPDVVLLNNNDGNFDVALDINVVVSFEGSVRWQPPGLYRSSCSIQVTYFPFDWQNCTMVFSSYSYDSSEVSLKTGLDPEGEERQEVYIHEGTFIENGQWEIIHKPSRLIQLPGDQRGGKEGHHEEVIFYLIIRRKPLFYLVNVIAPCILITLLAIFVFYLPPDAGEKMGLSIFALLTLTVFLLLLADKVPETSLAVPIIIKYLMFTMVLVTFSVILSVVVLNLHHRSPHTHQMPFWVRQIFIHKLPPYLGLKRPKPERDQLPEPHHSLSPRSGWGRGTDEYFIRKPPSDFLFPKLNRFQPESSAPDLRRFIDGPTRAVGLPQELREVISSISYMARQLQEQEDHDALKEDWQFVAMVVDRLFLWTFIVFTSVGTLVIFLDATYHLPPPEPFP
# T7 sequence (P04760 23-519): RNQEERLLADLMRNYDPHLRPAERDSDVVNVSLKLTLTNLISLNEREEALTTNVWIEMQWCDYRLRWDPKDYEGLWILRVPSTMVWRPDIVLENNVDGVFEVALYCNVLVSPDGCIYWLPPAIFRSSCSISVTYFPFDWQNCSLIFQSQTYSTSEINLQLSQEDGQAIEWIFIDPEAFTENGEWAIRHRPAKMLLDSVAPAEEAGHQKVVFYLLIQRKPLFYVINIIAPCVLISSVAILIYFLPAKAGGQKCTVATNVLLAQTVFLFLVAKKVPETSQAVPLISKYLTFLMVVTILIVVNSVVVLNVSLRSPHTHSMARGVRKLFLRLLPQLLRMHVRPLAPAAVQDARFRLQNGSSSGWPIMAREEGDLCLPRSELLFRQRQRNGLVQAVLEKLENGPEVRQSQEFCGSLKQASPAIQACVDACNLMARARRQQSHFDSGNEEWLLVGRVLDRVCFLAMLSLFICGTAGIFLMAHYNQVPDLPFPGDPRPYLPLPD
# T7 sequence (P02716 25-520): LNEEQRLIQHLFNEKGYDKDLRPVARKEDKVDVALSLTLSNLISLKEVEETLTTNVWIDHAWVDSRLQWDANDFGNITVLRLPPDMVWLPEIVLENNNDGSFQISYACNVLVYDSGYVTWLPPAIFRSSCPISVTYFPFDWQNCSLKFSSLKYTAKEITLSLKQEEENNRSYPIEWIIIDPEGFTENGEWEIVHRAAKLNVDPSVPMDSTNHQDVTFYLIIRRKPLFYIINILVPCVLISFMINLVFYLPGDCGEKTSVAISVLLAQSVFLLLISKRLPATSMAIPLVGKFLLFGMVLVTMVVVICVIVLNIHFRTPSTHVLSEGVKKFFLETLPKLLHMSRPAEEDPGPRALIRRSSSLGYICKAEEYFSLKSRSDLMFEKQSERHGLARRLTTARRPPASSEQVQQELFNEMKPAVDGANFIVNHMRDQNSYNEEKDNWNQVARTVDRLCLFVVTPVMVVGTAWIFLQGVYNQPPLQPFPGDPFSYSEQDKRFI
# Protocol: as §2, §3, §4, §5
# [1] = test system: human muscle-type nAChRs in TE671 cells; assay: Muscle-type nAChRs in TE671 cells (previous study); type: cell-based; settings: previous study compared with present oocyte data ref 8
# nAChRs = assay: Two-electrode voltage clamp of Xenopus oocytes expressing nAChRs, statements across tested subtypes; type: cell-based
# Protocol: as §1, §2, §3, §4, §5
# α3β2 nAChR = α3β2 nAChR (Rattus norvegicus, UniProt P04757+P12390); assay: Two-electrode voltage clamp of ACh currents, α3β2 nAChRs expressed in Xenopus oocytes; settings: for pIC50: IC50 (95% CI), ACh 30 μM
# α3β2 nAChR, sequence (P04757 26-499): as the sequence (P04757 26-499) above
# α3β2 nAChR, sequence (P12390 25-500): as the sequence (P12390 25-500 V277F) above, with F253V counted along it
# Protocol: as §2, §3, §4, §5
# [2] = VH −60 mV, late current (1 min), read-out: IC50 (95% CI), Late
# [3] = VH −60 mV, peak current, read-out: IC50 (95% CI), Peak
# [4] = VH −80 mV, late current (1 min), read-out: IC50 (95% CI), Late
# [5] = VH −80 mV, peak current, read-out: IC50 (95% CI), Peak
# [6] = VH −100 mV, late current (1 min), read-out: IC50 (95% CI), Late
# [7] = VH −100 mV, peak current, read-out: IC50 (95% CI), Peak
# T1 sequence (P09483 31-630): as the sequence (P09483 31-630, stated change not applied) above
# T1 sequence (P12390 25-500): as the sequence (P12390 25-500 V277F) above, with F253V counted along it
structure (smiles),measurement,setting,value
CCCC(=O)N[C@@H](Cc1ccc(O)cc1)C(=O)NCCCCCCCCCCCCN [PhTX-12],pIC50,"α4β2 nAChR; Late, α4β2, VH −60 mV, late current (1 min)",6.64
same,pIC50,"α4β2 nAChR; Late, α4β2, VH −80 mV, late current (1 min)",6.55
same,pIC50,"α4β2 nAChR; Late, α4β2, VH −100 mV, late current (1 min)",7.36
same,pIC50,"α4β2 nAChR; Peak, α4β2, VH −60 mV, peak current",5.41
same,pIC50,"α4β2 nAChR; Peak, α4β2, VH −80 mV, peak current",5.66
same,pIC50,"α4β2 nAChR; Peak, α4β2, VH −100 mV, peak current",5.79
same,times less sensitive than the most sensitive subtype,"α4β2 nAChR; α4β2 vs α3β4 (for PhTX-12: α1β1γδ along with α3β4), late current IC50, −80 mV",3 times
same,reduction in late current IC50 as compared to α4β2,"α4β2(V253F) nAChR; α4β2(V253F) vs α4β2, late current, −80 mV",no significant differences
same,change in peak current IC50 as compared to α4β2,"α4β2(V253F) nAChR; α4β2(V253F) vs α4β2, peak current, −80 mV",no significant differences
same,pIC50,α4β2(V253F) nAChR; [2],6.39
same,pIC50,α4β2(V253F) nAChR; [3],5.65
same,pIC50,α4β2(V253F) nAChR; [4],6.52
same,pIC50,α4β2(V253F) nAChR; [5],5.39
same,pIC50,α4β2(V253F) nAChR; [6],6.72
same,pIC50,α4β2(V253F) nAChR; [7],5.46
same,pIC50,"α4β4 nAChR; Late, α4β4, VH −60 mV, late current (1 min)",6.60
same,pIC50,"α4β4 nAChR; Late, α4β4, VH −80 mV, late current (1 min)",6.54
same,pIC50,"α4β4 nAChR; Late, α4β4, VH −100 mV, late current (1 min)",6.72
same,pIC50,"α4β4 nAChR; Peak, α4β4, VH −60 mV, peak current",5.92
same,pIC50,"α4β4 nAChR; Peak, α4β4, VH −80 mV, peak current",5.78
same,pIC50,"α4β4 nAChR; Peak, α4β4, VH −100 mV, peak current",5.56
same,"voltage dependence of inhibition, late current","α4β4 nAChR; α4β4, late current IC50 values, VH −60 to −100 mV",voltage-independent
same,times less sensitive than the most sensitive subtype,"α4β4 nAChR; α4β4 vs α3β4 (for PhTX-12: α1β1γδ along with α3β4), late current IC50, −80 mV",3 times
same,pIC50,"α3β4 nAChR; IC50 (95% CI), Late, α3β4, VH −60 mV, late current (1 min), ACh 100 μM",6.96
same,pIC50,"α3β4 nAChR; IC50 (95% CI), Late, α3β4, VH −80 mV, late current (1 min), ACh 100 μM",6.96
same,pIC50,"α3β4 nAChR; IC50 (95% CI), Late, α3β4, VH −100 mV, late current (1 min), ACh 100 μM",7.57
same,pIC50,"α3β4 nAChR; IC50 (95% CI), Peak, α3β4, VH −60 mV, peak current, ACh 100 μM",5.51
same,pIC50,"α3β4 nAChR; IC50 (95% CI), Peak, α3β4, VH −80 mV, peak current, ACh 100 μM",5.58
same,pIC50,"α3β4 nAChR; IC50 (95% CI), Peak, α3β4, VH −100 mV, peak current, ACh 100 μM",5.69
same,pIC50,"α3β4 nAChR; IC50, α3β4, late current, −80 mV",7.00
same,surmountability of late current inhibition,"α3β4 nAChR; α3β4, 0.3 μM toxin, late current, −80 mV",insurmountable
same,surmountability of peak current inhibition by higher ACh concentrations,"α3β4 nAChR; α3β4, 10 μM toxin, peak current, −80 mV",surmountable
same,peak current during the first ACh application after removal of toxin (6 min),"α3β4 nAChR; α3β4, after 10 μM toxin, mean of all cells, −80 mV, not significantly greater than control (p = 0.217)",119.4 % control response
same,increase in late current IC50 as compared to α3β4,"α3β4(F255V) nAChR; α3β4(F255V) vs α3β4, late current, −80 mV",3.3 fold
same,reduction in peak current IC50 as compared to α3β4,"α3β4(F255V) nAChR; α3β4(F255V) vs α3β4, peak current, −80 mV",no difference
same,pIC50,α3β4(F255V) nAChR; [2],6.28
same,pIC50,α3β4(F255V) nAChR; [3],5.79
same,pIC50,α3β4(F255V) nAChR; [4],6.44
same,pIC50,α3β4(F255V) nAChR; [5],5.56
same,pIC50,α3β4(F255V) nAChR; [6],7.17
same,pIC50,α3β4(F255V) nAChR; [7],5.98
same,pIC50,"α7 nAChR; Late, α7, VH −60 mV, based on the area under the current trace (no stable late current)",5.08
same,pIC50,"α7 nAChR; Late, α7, VH −80 mV, based on the area under the current trace (no stable late current)",5.31
same,pIC50,"α7 nAChR; Late, α7, VH −100 mV, based on the area under the current trace (no stable late current)",5.30
same,pIC50,"α7 nAChR; Peak, α7, VH −60 mV, peak current",4.73
same,pIC50,"α7 nAChR; Peak, α7, VH −80 mV, peak current",4.95
same,pIC50,"α7 nAChR; Peak, α7, VH −100 mV, peak current",4.92
same,recovery of the late current after 6 min,"α7 nAChR; α7, 10 μM toxin, −80 mV",complete
same,times less sensitive than the most sensitive subtype,"α7 nAChR; α7 vs α3β4 (for PhTX-12: α1β1γδ along with α3β4), late current IC50, −80 mV",49 times
same,pIC50,"α1β1γδ nAChR; Late, VH −60 mV, late current (1 min)",7.15
same,pIC50,"α1β1γδ nAChR; Late, VH −80 mV, late current (1 min)",7.00
same,pIC50,"α1β1γδ nAChR; Late, VH −100 mV, late current (1 min)",7.15
same,pIC50,"α1β1γδ nAChR; Peak, VH −60 mV, peak current",5.50
same,pIC50,"α1β1γδ nAChR; Peak, VH −80 mV, peak current",5.21
same,pIC50,"α1β1γδ nAChR; Peak, VH −100 mV, peak current",5.30
same,surmountability of late current inhibition,"α1β1γδ nAChR; 0.3 μM toxin, late current, −80 mV",insurmountable
same,surmountability of peak current inhibition by increasing ACh concentrations,"α1β1γδ nAChR; 10 μM toxin, peak current, −80 mV",surmountable
same,"voltage dependence of inhibition, late current","α1β1γδ nAChR; late current IC50 values, VH −60 to −100 mV",voltage-independent
same,lower potency at human muscle-type nAChRs in TE671 cells than in the present study,[1],11 fold
same,effect on membrane current when applied alone,"nAChRs; 100 μM applied alone, VH = −80 mV, oocytes expressing nAChRs",did not produce any effect on membrane current
same,voltage dependence of inhibition of peak current,"nAChRs; all nAChRs, peak current, VH −60 to −100 mV",voltage-independent for all nAChRs except for homomeric α7
same,reversibility of inhibition of nAChRs,"nAChRs; all subunit combinations, 10 μM toxin, −80 mV",fully or almost reversible after 6 min
same,pIC50,"α3β2 nAChR; Late, α3β2, VH −60 mV, late current (1 min)",5.49
same,pIC50,"α3β2 nAChR; Late, α3β2, VH −80 mV, late current (1 min)",5.59
same,pIC50,"α3β2 nAChR; Late, α3β2, VH −100 mV, late current (1 min)",5.86
same,pIC50,"α3β2 nAChR; Peak, α3β2, VH −60 mV, peak current",4.19
same,pIC50,"α3β2 nAChR; Peak, α3β2, VH −80 mV, peak current",4.22
same,pIC50,"α3β2 nAChR; Peak, α3β2, VH −100 mV, peak current",4.13
same,recovery of the late current after 6 min,"α3β2 nAChR; α3β2, 10 μM toxin, −80 mV",complete
same,recovery of the peak current after 6 min,"α3β2 nAChR; α3β2, 10 μM toxin, −80 mV",complete
same,times less sensitive than the most sensitive subtype,"α3β2 nAChR; α3β2 vs α3β4 (for PhTX-12: α1β1γδ along with α3β4), late current IC50, −80 mV",26 times
